Measurements as given in US10040759B2, “Substituted azetidinyl compounds as GlyT1 inhibitors” (DART NEUROSCIENCE (CAYMAN) LTD., priority 2014, dated 2018).

Biological target: T1, GlyT1 (Homo sapiens, UniProt P48067)
T1 construct: expressed in transfected cells
T1 sequence (P48067 1-706): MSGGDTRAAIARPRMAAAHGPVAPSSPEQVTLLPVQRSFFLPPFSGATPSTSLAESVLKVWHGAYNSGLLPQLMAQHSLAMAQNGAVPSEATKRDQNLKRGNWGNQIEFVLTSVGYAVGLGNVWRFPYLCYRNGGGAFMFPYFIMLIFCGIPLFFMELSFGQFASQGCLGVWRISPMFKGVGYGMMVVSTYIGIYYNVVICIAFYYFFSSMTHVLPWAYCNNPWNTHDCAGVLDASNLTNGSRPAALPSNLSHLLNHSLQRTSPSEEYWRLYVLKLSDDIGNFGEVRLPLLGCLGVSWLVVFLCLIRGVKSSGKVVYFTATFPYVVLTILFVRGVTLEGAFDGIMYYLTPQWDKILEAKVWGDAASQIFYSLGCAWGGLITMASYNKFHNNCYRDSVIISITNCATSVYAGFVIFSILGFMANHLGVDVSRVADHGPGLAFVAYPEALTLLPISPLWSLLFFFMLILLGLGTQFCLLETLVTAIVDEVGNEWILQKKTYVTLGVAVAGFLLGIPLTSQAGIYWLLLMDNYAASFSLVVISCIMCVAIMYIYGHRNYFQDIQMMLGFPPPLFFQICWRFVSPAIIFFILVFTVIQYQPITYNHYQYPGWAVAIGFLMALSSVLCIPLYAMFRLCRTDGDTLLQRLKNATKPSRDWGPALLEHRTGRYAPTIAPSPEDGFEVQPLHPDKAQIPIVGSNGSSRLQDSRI
Assay: Glycine Transporter 1 (GlyT1) uptake assay, scintillation proximity assay of [14C]-glycine uptake
Format: cell-based
Conditions: [14C]-glycine uptake; read-out: GlyT1 (pIC50) (converted)
Outline: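 IC50 values were derived by four-parameter logistic fitting of counts. The 2× compound solutions were made by 1:100 dilution into HBSS of DMSO serial dilutions.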

IC50 [µM] | Compound
< 0.1 | COc1c(C#N)ccc(O[C@@H](C)C(F)(F)F)c1C(=O)N1CC(c2ccc(C#N)cc2Cl)C1 [Example 118, 3-{[3-(2-Chloro-4-cyanophenyl)azetidin-1-yl]carbonyl}-2-methoxy-4-{[(2S)-1,1,1-trifluoropropan-2-yl]oxy}benzonitrile]
< 0.1 | COc1c(C#N)ccc(OCC(F)(F)F)c1C(=O)N1CC(c2ncc(C(F)(F)F)cc2Cl)C1 [Example 119, 3-({3-[3-Chloro-5-(trifluoromethyl)pyridin-2-yl]azetidin-1-yl}carbonyl)-2-methoxy-4-(2,2,2-trifluoroethoxy)benzonitrile]
< 0.1 | C[C@H](Oc1ccc(C#N)c(Cl)c1C(=O)N1CC(c2ccc(C(F)(F)F)cn2)C1)C(F)(F)F [Example 120, 2-Chloro-3-({3-[5-(trifluoromethyl)pyridin-2-yl]azetidin-1-yl}carbonyl)-4-{[(2S)-1,1,1-trifluoropropan-2-yl]oxy}benzonitrile]
< 0.1 | COc1c(C#N)ccc(O[C@@H](C)C(F)(F)F)c1C(=O)N1CC(c2ncc(F)cc2F)C1 [Example 121, 3-{[3-(3,5-Difluoropyridin-2-yl)azetidin-1-yl]carbonyl}-2-methoxy-4-{[(2S)-1,1,1-trifluoropropan-2-yl]oxy}benzonitrile]
< 0.1 | COc1c(C#N)ccc(O[C@@H](C)C(F)(F)F)c1C(=O)N1CC(c2ccc(C#N)c(Cl)c2)C1 [Example 122, 3-{[3-(3-Chloro-4-cyanophenyl)azetidin-1-yl]carbonyl}-2-methoxy-4-{[(2S)-1,1,1-trifluoropropan-2-yl]oxy}benzonitrile]
< 0.1 | COc1c(C#N)ccc(O[C@@H](C)C(F)(F)F)c1C(=O)N1CC(c2ccccc2C#N)C1 [Example 123, 3-{[3-(2-Cyanophenyl)azetidin-1-yl]carbonyl}-2-methoxy-4-{[(2S)-1,1,1-trifluoropropan-2-yl]oxy}benzonitrile]
< 0.1 | COc1c(C#N)ccc(O[C@@H](C)C(F)(F)F)c1C(=O)N1CC(c2ccc(C#N)c(F)c2Cl)C1 [Example 124, 3-Chloro-4-{1-[(3-cyano-2-methoxy-6-{[(2S)-1,1,1-trifluoropropan-2-yl]oxy}phenyl)carbonyl]azetidin-3-yl}-2-fluorobenzonitrile]
< 0.1 | COc1c(C#N)ccc(OCC(F)(F)F)c1C(=O)N1CC(c2ccc(C(F)(F)F)cn2)C1 [Example 125, 2-Methoxy-4-(2,2,2-trifluoroethoxy)-3-({3-[5-(trifluoromethyl)pyridin-2-yl]azetidin-1-yl}carbonyl)benzonitrile]
< 0.1 | COc1c(C#N)ccc(O[C@@H](C)C(F)(F)F)c1C(=O)N1CC(c2ccc(Cl)cc2C#N)C1 [Example 126, 3-{[3-(4-Chloro-2-cyanophenyl)azetidin-1-yl]carbonyl}-2-methoxy-4-{[(2S)-1,1,1-trifluoropropan-2-yl]oxy}benzonitrile]
< 0.1 | COc1c(C#N)ccc(O[C@@H](C)C(F)(F)F)c1C(=O)N1CC(c2ccc(F)cc2C#N)C1 [Example 127, 3-{[3-(2-Cyano-4-fluorophenyl)azetidin-1-yl]carbonyl}-2-methoxy-4-{[(2S)-1,1,1-trifluoropropan-2-yl]oxy}benzonitrile]
< 0.1 | COc1cc(C#N)ccc1C1CN(C(=O)c2c(O[C@@H](C)C(F)(F)F)ccc(C#N)c2OC)C1 [Example 128, 3-{[3-(4-Cyano-2-methoxyphenyl)azetidin-1-yl]carbonyl}-2-methoxy-4-{[(2S)-1,1,1-trifluoropropan-2-yl]oxy}benzonitrile]

Further lines, the compound ahead of its results:

Compound | IC50 [µM]
COc1c(C#N)ccc(OC(C)C(F)(F)F)c1C(=O)N1CC(c2cc(F)cc(F)c2)C1 (centres unmarked) [Example 100, 3-{[3-(3,5-Difluorophenyl)azetidin-1-yl]carbonyl}-2-methoxy-4-[(1,1,1-trifluoropropan-2-yl)oxy]benzonitrile] | 0.1 to 1
COc1c(C#N)ccc(OC(C)C(F)(F)F)c1C(=O)N1CC(c2ccc(F)c(F)c2)C1 (centres unmarked) [Example 101, 3-{[3-(3,4-Difluorophenyl)azetidin-1-yl]carbonyl}-2-methoxy-4-[(1,1,1-trifluoropropan-2-yl)oxy]benzonitrile] | < 0.1
COc1c(C#N)ccc(OC(C)C(F)(F)F)c1C(=O)N1CC(Oc2cccnc2)C1 (centres unmarked) [Example 102, 2-Methoxy-3-{[3-(pyridin-3-yloxy)azetidin-1-yl]carbonyl}-4-[(1,1,1-trifluoropropan-2-yl)oxy]benzonitrile] | 0.1 to 1
CC(Oc1ccc(C#N)c(Cl)c1C(=O)N1CC(Oc2cccnc2)C1)C(F)(F)F (centres unmarked) [Example 103, 2-Chloro-3-{[3-(pyridin-3-yloxy)azetidin-1-yl]carbonyl}-4-[(1,1,1-trifluoropropan-2-yl)oxy]benzonitrile] | < 0.1
COc1c(C#N)ccc(C2(F)CCC2)c1C(=O)N1CC(c2ccc(C#N)cc2)C1 [Example 104, 3-{[3-(4-Cyanophenyl)azetidin-1-yl]carbonyl}-4-(1-fluorocyclobutyl)-2-methoxybenzonitrile] | 0.1 to 1
N#Cc1ccc(OCC(F)(F)F)c(C(=O)N2CC(c3ccc(C(F)(F)F)cc3)C2)c1Cl [Example 105, 2-Chloro-4-(2,2,2-trifluoroethoxy)-3-({3-[4-(trifluoromethyl)phenyl]azetidin-1-yl}carbonyl)benzonitrile] | 0.1 to 1
N#Cc1ccc(C2CN(C(=O)c3c(OCC(F)(F)F)ccc(C#N)c3Cl)C2)cc1 [Example 106, 2-Chloro-3-{[3-(4-cyanophenyl)azetidin-1-yl]carbonyl}-4-(2,2,2-trifluoroethoxy)benzonitrile] | < 0.1
C[C@H](Oc1ccc(C#N)c(Cl)c1C(=O)N1CC(c2ccc(C(F)(F)F)cc2)C1)C(F)(F)F [Example 107, 2-Chloro-3-({3-[4-(trifluoromethyl)phenyl]azetidin-1-yl}carbonyl)-4-{[(2S)-1,1,1-trifluoropropan-2-yl]oxy}benzonitrile] | < 0.1
COc1c(C#N)ccc(O[C@@H](C)C(F)(F)F)c1C(=O)N1CC(c2ccc(C#N)cc2)C1 [Example 108, 3-{[3-(4-Cyanophenyl)azetidin-1-yl]carbonyl}-2-methoxy-4-{[(2S)-1,1,1-trifluoropropan-2-yl]oxy}benzonitrile] | 1 to 10
C[C@H](Oc1ccc(C#N)c(Cl)c1C(=O)N1CC(c2ccc(C#N)cc2)C1)C(F)(F)F [Example 109, 2-Chloro-3-{[3-(4-cyanophenyl)azetidin-1-yl]carbonyl}-4-{[(2S)-1,1,1-trifluoropropan-2-yl]oxy}benzonitrile] | 0.1 to 1
Cc1cncc(C2CN(C(=O)c3c(OC(C)C(F)(F)F)ccc(C#N)c3Cl)C2)c1 (centres unmarked) [Example 110, 2-Chloro-3-{[3-(5-methylpyridin-3-yl)azetidin-1-yl]carbonyl}-4-[(1,1,1-trifluoropropan-2-yl)oxy]benzonitrile] | 0.1 to 1
COc1c(C#N)ccc(OC(C)C(F)(F)F)c1C(=O)N1CC(c2cncc(C)c2)C1 (centres unmarked) [Example 111, 2-Methoxy-3-{[3-(5-methylpyridin-3-yl)azetidin-1-yl]carbonyl}-4-[(1,1,1-trifluoropropan-2-yl)oxy]benzonitrile] | 0.1 to 1
CC(Oc1ccc(C#N)c(Cl)c1C(=O)N1CC(c2ccc(C(F)(F)F)nc2)C1)C(F)(F)F (centres unmarked) [Example 112, 2-Chloro-3-({3-[6-(trifluoromethyl)pyridin-3-yl]azetidin-1-yl}carbonyl)-4-[(1,1,1-trifluoropropan-2-yl)oxy]benzonitrile] | < 0.1
COc1c(C#N)ccc(OC(C)C(F)(F)F)c1C(=O)N1CC(c2ccc(C(F)(F)F)nc2)C1 (centres unmarked) [Example 113, 2-Methoxy-3-({3-[6-(trifluoromethyl)pyridin-3-yl]azetidin-1-yl}carbonyl)-4-[(1,1,1-trifluoropropan-2-yl)oxy]benzonitrile] | < 0.1
COc1c(C#N)ccc(O[C@@H](C)C(F)(F)F)c1C(=O)N1CC(c2ncc(C(F)(F)F)cc2Cl)C1 [Example 114, 3-({3-[3-Chloro-5-(trifluoromethyl)pyridin-2-yl]azetidin-1-yl}carbonyl)-2-methoxy-4-{[(2S)-1,1,1-trifluoropropan-2-yl]oxy}benzonitrile] | 0.1 to 1
COc1c(C#N)ccc(O[C@@H](C)C(F)(F)F)c1C(=O)N1CC(c2ccc(C(F)F)cn2)C1 [Example 115, 3-({3-[5-(Difluoromethyl)pyridin-2-yl]azetidin-1-yl}carbonyl)-2-methoxy-4-{[(2S)-1,1,1-trifluoropropan-2-yl]oxy}benzonitrile] | 0.1 to 1
COc1c(C#N)ccc(O[C@@H](C)C(F)(F)F)c1C(=O)N1CC(c2ccc(C#N)c(F)c2)C1 [Example 116, 3-{[3-(4-Cyano-3-fluorophenyl)azetidin-1-yl]carbonyl}-2-methoxy-4-{[(2S)-1,1,1-trifluoropropan-2-yl]oxy}benzonitrile] | < 0.1
COc1c(C#N)ccc(C2(F)CCOCC2)c1C(=O)N1CC(c2ncc(C(F)(F)F)cc2Cl)C1 [Example 117, 3-({3-[3-Chloro-5-(trifluoromethyl)pyridin-2-yl]azetidin-1-yl}carbonyl)-4-(4-fluorooxan-4-yl)-2-methoxybenzonitrile] | < 0.1
